For this test, the system named is Store-bought Strawberries. In words: Strawberry shelf-life / spoilage test after ascaroside treatment. Conditions: berries dipped into 100 nM water solution. On the procedure:
Example 1: treatment of fruit with ascarosides extends shelf-life/delays spoilage. Store-bought Strawberries were treated with ascaroside (ascr #18) by dipping the berries into a 100 nM water solution of the ascaroside or a mock solution lacking ascaroside. Five berries from each treatment group were placed in glass dishes and left uncovered on a table indoors at ambient temperature and monitored for one week. Fruit weight was measured at 0, 1, 3, 4, 5, 6, and 7 days post-treatment. The ascaroside treated berries retained approximately 25% more of their original mass than the untreated group indicating a reduced spoilage rate and potential for increased shelf life. […] Example 2: treatment of fruit with coating compositions containing ascarosides. Freshly harvested, non-coated, apples were obtained from a supermarket. These were washed and experimental coatings were applied.

As for `CC1OC(O[C@H](C)CCCCCCCCC(=O)O)C(O)CC1O` (some centres unmarked) [ascr #18], the “fruit quality by appearance (photographs, FIG. 1b)” value (photographs 0, 3 and 5 days post-treatment, vs untreated fruit) is on record as “maintained higher quality than the untreated fruit”. Moreover, the “original mass retained, more than the untreated group (normalized fruit mass, FIG. 1a)” value (uncovered at ambient temperature, monitored for seven days, vs mock solution) was “approximately 25%”.

These data come from patent US20260144266A1, “METHODS OF TREATING PLANT-BASED PRODUCTS TO REDUCE MICROBE PROLIFERATION AND EXTEND SHELF LIFE” (Ascribe Bioscience Inc., priority 2022, published 2026).
